The values that follow come from patent publication US20190167647A1, “PHARMACEUTICAL COMPOSITION FOR STROKE TREATMENT BASED ON AMPK INHIBITION” (INDUSTRY ACADEMY COOPERATION FOUNDATION OF SEJONG UNIVERSITY, priority 2016, published 2019).

Data set [1] has as its system cultured cerebral cortex neurons of a mouse. Kind of data set: Intracellular free zinc after zinc exposure, FluoZin-3 (confocal microscope, fluorometer). Format: cell-based. How it is done:
In order to monitor whether an actual free zinc concentration in neuronal cells is increased or not, the cultured cerebral cortex neurons of a mouse were pre-treated with a FluoZin-3 staining material, exposed to high concentration zinc, and then, treated with 4C01 (20 μM), 4C07 (20 μM) and the drug #28 (20, 50 μM). Thereafter, images of these treated neurons were observed using a confocal laser fluorescence microscope, and a fluorescent size was quantitatively measured using a fluorescence photometer (fluorometer).

The nature of data set [2]: Calcium chelation with Fura-2 dye (test tube). Format: physicochemical. As for the experimental part: In order to determine whether the above result is obtained by the chelation of Ca^2+ ions other than the drug #28, protective effects of the drug #28 (10 to 60 μM) after treatment using ionomycin, which is a calcium ion permeable carrier (‘calcium ionophore’) directly increasing the intracellular calcium concentration, were under observation. Further, using a Fura-2 dye that is combined with calcium to represent fluorescence, it was monitored whether the drug #28 is combined with calcium on a test tube and represents chelating effects.

Another data set concerns mouse cortical cultures. Kind of data set: TPEN-induced neurotoxicity (LDH secretion). It counts as cell-based. The text has this: Generally, application of TPEN as a zinc chelator easily flowing into the cells causes a cell death in the form of typical apoptosis (EDTA is not introduced into the cells). When adding zinc to the above treatment, intracellular free zinc ions are retained thus to reduce neuronal death and further reduce caspase-3 protease activity in the apoptosis process. Under expectation such that: the drug #28 and clioquinol may not only serve as a chelator but also play a role of an ion permeable carrier; these drugs flow into cells as combined with zinc; thereafter, the zinc is removed from the drug because a concentration of free zinc in the cytoplasm is too low; therefore, the concentration of free zinc in the cytoplasm is increased thus to reduce neurotoxicity due to TPEN, caspase-3 activity and neurotoxicity (LDH secretion) were under observation after treatment using zinc, the drug #28 and clioquinol.

The subject of data set [3] is cultured cerebral cortex neurons of a mouse. Kind of data set: Zinc neurotoxicity inhibition, LDH assay (tertiary screening). Particulars: 300 μM zinc 10 min. Format: cell-based. How it is done: Cerebral cortex neurons of a mouse used in the present invention were extracted from the mouse embryos brain and cultured, followed by further culturing the same using a Dulbecco's modified Eagle's medium (DMEM, Gibco, Grand Island, N.Y., US) containing 5% fetal bovine serum (FBS) and 5% horse serum (HS) under conditions of 95% humidity, 5% CO2 and 37° C. temperature. For activation and differentiation of the above cells, these cells were proliferated at a density of 2×10^4 cells in 24-well tissue culture plate. Further, prior to treatment using zinc and the compounds, the cells were incubated in MEM medium without FBS and HS.
More particularly, the cultured cerebral cortex neurons of a mouse were briefly exposed to 300 μM zinc for 10 minutes, and then treated with the selected 40 drugs, respectively, in order to observe neuro-protective effects. A degree of neuronal death of these cells was quantified by LDH assay wherein effects of individual drugs were averaged to result in a numerical value, and separate experiments were performed on each of the selected drugs 4 times, respectively (FIG. 4).

For another data set, the system named is neuronal cells. Kind of data set: H2O2-mediated intracellular zinc increase, FluoZin-3 staining. Format: cell-based. As to conditions: FluoZin-3, confocal microscopy.
Data set [4] is described as follows: Free zinc concentration by pZn meter (test tube). Format: physicochemical. Particulars: 2.5 to 20 μM drug, ZnAF 2.5 μM. As for the experimental part:
In order to measure free zinc concentration levels, the drug #28 of the present invention was used for treatment in different concentrations (2.5 to 20 μM) along with ZnAF (2.5 μM) as a zinc fluorescent material on a test tube. On the other hand, a control group uses clioquinol (1 to 5 μM) well known as a very stronger zinc chelator. A free zinc concentration was measured by a pZn meter (NeuroBioTex Inc.).

With `O=C1N=C(Nc2cccc(O)c2)S/C1=C\c1c[nH]c2ccccc12` [compound 28, (Z)-5-((1H-indol-3-yl)methylene)-2-((3-hydroxyphenyl)amino)thiazol-4(5H)-one], in data set [1] (4C01, 4C07 20 μM, #28 20, 50 μM, fluorometer), the “increase in intracellular free zinc, fluorescence magnitude” value is “inhibit an increase in intracellular free zinc to the similar level”. For the same compound, in data set [1] (high concentration zinc, 20, 50 μM, confocal microscope), the “increase in free zinc in the neurons” value was “significantly reduced”. In data set [2], the “affinity to calcium ions versus zinc ions” value is reported as “lower affinity to calcium ions than zinc ions”. Further, the “chelating effects for calcium” value in data set [2] (Fura-2 dye, test tube) is reported as “shows the chelating effects for calcium in a high concentration”. For the same compound, in the data set on mouse cortical cultures, the “neurotoxicity by TPEN” value is recorded as “decrease neurotoxicity by TPEN”. For the same compound, the “inhibition of zinc toxicity” value in data set [3] is “significantly inhibit zinc toxicity”. Also, the “zinc in the neuronal cells during H2O2 toxicity” value with neuronal cells is recorded as “zinc reduction in the neuronal cells”. The free zinc concentration entry in data set [4] is “reduced in a concentration-dependent manner”.
